What was measured:
[1] = tested on: cough reflex pathway; conditions: in vivo; cited from earlier work
[2] = tested on: pulmonary fibrosis mice induced by bleomycin; test: HE stained pathological evaluation and inflammation scores (Embodiment 4); type: in vivo, C57BL/6 mice
Protocol: (§1) Female C57BL/6 mice (eight-week-old) are established for models after 7 days, the time is set for the mice to adapt to the environment. After fasts for overnight, the mice are anaesthetized by 3% chloral hydrate and fixed. Sterilize and incise neck skin longitudinally as little injury as possible. Split fascia and muscle with tweezers longitudinally and expose the windpipe. Then, about 35 μl (3.5 mg/kg) bleomycin are injected into windpipe with microinjector. Put the mice upright rapidly and rotate the mice for 3˜5 minutes, so that bleomycin is able to enter into the pulmones uniformly. Observe the breathing of mice. Sterilize neck injury with 75% alcohol tampon and stitch the wound, then 1 drop or 2 drops of benzylpenicillin injection is/are dripped into the suture. Put the mice back into dry and clean cages, and feed them normally after waking up. Operations are done on operating table at about […]. Physiological saline using in injection is injected into windpipe of sham operation group.
(§2) Model animals are divided into prevention groups and treatment groups, then drugs are given to the two groups respectively. According to internationally methods of drug administration, drugs are given continuously to the prevention groups by means of intragastric administration from the second day after successfully establishing model to the 14th day, and drugs are given continuously to treatment groups by means of intragastric administration from the 8th day after successfully establishing model to the 21th day. Groups and dosage regimen are shown in tab.1.
After the last intragastric administration, the mice are anaesthetized and killed to collect the lung tissue. Immerse the left lobule in 10% formalin, and embed it by paraffin after being fixed, then cut it into slices to observe the pathological changes by HE staining. As is shown in FIG. 3, structures of lobules of sham operation group are normal and the alveolar walls are complete without inflammation and fibrosis pathological changes. Obvious inflammation injury and masses of tissue begin to appear in lung of mice in model group, then the normal lung tissue disappears and alveolar is blocked. […] The groups with lower dose (30 mg/kg) of the 3 compounds show better effect than the groups with higher dose. The pulmonary inflammation disappears and alveolar structure is clear in groups with lower dose.
Inflammatory classification semi quantitative statistics analysis is made according to results of HE staining. Grade 0 represents normal tissue or minimal inflammation change. Grade 1 (+) represents mild to moderate inflammation change, and lung tissue without obvious damage. Grade 2 (++) represents moderate to severe inflammation injury, and alveolar septum is thickened to form masses of tissue, or lung tissue with damage caused by partial area inflammation. Grade 3 (+++) represents severe inflammation injury, and structure of restricted regions in lung tissue is severely damaged, thus resulting in obliteration. […] The groups with lower dose show better effect than the groups with higher dose. In general, the 3 compounds have better effect in decreasing the pulmonary inflammation than the positive drug pirfenidone.

[3] = tested on: pulmonary fibrosis mice induced by bleomycin; test: Content determination of hydroxyproline in lung tissue (Embodiment 4); type: in vivo, C57BL/6 mice; conditions: 30 mg/kg and 60 mg/kg, prevention groups and treatment groups (FIG. 7); lower dose slightly better
Protocol: as §1, §2
Hydroxyproline mainly exists in collagen protein, but there is only a very small amounts in elastin proteins and it cannot found in other proteins. Therefore the content of collagen protein can be indicated by measuring the content of hydroxyproline, so as to evaluate the degree of pulmonary fibrosis. Method of test kit (which is purchased from Nanjing Jiancheng Biological Technology Co., Ltd.) according to specification is used in determination of hydroxyproline. Results can be seen in FIG. 7.

[4] = tested on: TGF-β1; test: ELISA content determination of TGF-β1 in mice lung tissue (Embodiment 4); type: in vivo, C57BL/6 mice; conditions: 30 mg/kg and 60 mg/kg, prevention groups and treatment groups, versus model group (FIG. 8); lower dose more effective
Protocol: as §1, §2
TGF-β1 is a universally recognized strong pro-fibrotic cytokine. It can stimulate the cells to synthesize and secrete extracellular matrix as well as exchange the activity of matrix-degrading enzyme component and directly increase the deposition of ECM. The progress of pulmonary fibrosis can be slowed down by decreasing the content of TGF-β1 in lung tissue. Elisa test kit (which is purchased from Shanghai Excell Biological Technology Co., Ltd.) according to specification is used in the determination of TGF-β1 in mice lung tissue. Results can be seen in FIG. 8.

[5] = tested on: pulmonary fibrosis mice induced by bleomycin; test: Determination of mice mortality (Embodiment 4); type: in vivo, C57BL/6 mice
Protocol: as §1, §2
From the 0th day (the day when the model is established) to 14th day, drugs are given continuously to prevention groups. From the 8th day after successfully establishing model to 21th day, drugs are given continuously to treatment groups. Statistical analysis of death of animals in each group is carried on every day and the survival rate of animals in each group is calculated. Results are shown in tab.2.

[6] = tested on: pulmonary fibrosis mice induced by bleomycin; test: Detection of the mice lung index (Embodiment 4); type: in vivo, C57BL/6 mice; conditions: 30 and 60 mg/kg, prevention groups and treatment groups, versus model group (FIG. 2); lower dose better in prevention groups
Protocol: as §1, §2
After the last intragastric administration, the mice are killed to strip and weigh the lung, and the lung index is the lung weight divided by mouse weight (FIG. 2). […] In general, the 3 compounds have better effect in decreasing the mortality of mice than the positive drug pirfenidone.

[7] = tested on: pulmonary fibrosis mice induced by bleomycin; test: Activity of 8 alkaloids and pentoxyverine against pulmonary fibrosis in mice (Embodiment 3); type: in vivo, C57BL/6 mice; conditions: intragastric from first day after model to 21th day; alkaloids and pentoxyverine 30 mg/kg (FIG. 1B, 1C)
Protocol: as §1
Experimental mice are randomly divided into 12 groups: 10 mice in model group, 10 mice in pentoxyverine group, and 5 mice in any other group. Group 1 is sham operation group, group 2 is model group, group 3 is pentoxyverine group, group 4 is positive drug pirfenidone group, groups 5-12 are compounds I-VIII administration group respectively. Models of groups 2-12 are established by using bleomycin with the same method used in embodiment 2. From the first day after successfully establishing model, 30 mg/kg pentoxyverine and 300 mg/kg pirfenidone are given to group 3 and group 4 by means of intragastric administration respectively. 30 mg/kg compounds I-VIII are given to groups 5-12 also by means of intragastric administration respectively. Besides, same doses of solvent are given to sham operation group and model group until the 21th day. After the last intragastric administration, the mice are killed to collect the lung tissue, and the right lobule is used for determining the content of hydroxyproline, while the left lobule is used for preparing pathological sections.

[8] = tested on: cough of guinea pig induced by citric acid; conditions: cited from earlier work
[9] = tested on: pulmonary fibrosis mice induced by bleomycin; test: Masson stained pathological evaluation and imaging analysis of collagen (Embodiment 4); type: in vivo, C57BL/6 mice
Protocol: as §1, §2
Masson staining is a method aiming at specific staining of fibrillar collagen. After the last intragastric administration, the mice are anaesthetized and killed to collect the lung tissue. Immerse the left lobule in 10% formalin, and embed it by paraffin after being fixed, then is cut it into slices to observe the collagen deposition by Masson staining. Semi quantitative analysis is made by using Image-Pro Plus6.0. Integrated optical density (IOD) of collagen in each visual field is measured after Masson staining. 5 samples are studied in each group and 5 visual fields are picked out from each group. Statistics analysis is made by calculating mean value which is considered as relative amount of collagen in each group.

[10] = cited from earlier work
[11] = tested on: TGF-β1; conditions: cited from earlier work

## CC[C@@H]1[C@H]2CCCCN3[C@H]2[C@@H](C[C@H]3[C@@H]2C[C@H](C)C(=O)O2)[C@H]2[C@@H]1OC(=O)[C@H]2C [Compound VII, Neotuberostemonine]
[1]
  antitussive activities, comparison among stemona tuberosa alkaloids: similar
[2]; 30, 60 mg/kg, prevention and treatment groups (FIG. 4), lower dose better
  lung tissue inflammation scores (HE stained, grade 0-3): significantly decrease the pulmonary inflammation
[2]; prevention groups and treatment groups (FIG. 3), lower dose (30 mg/kg) better than higher dose
  pulmonary inflammation and injury, HE stained pathological changes: significantly alleviate the pulmonary inflammation
[3]
  content of hydroxyproline in lung tissue: effectively decrease the content of hydroxyproline
[4]
  content of TGF-β1 in lung tissue (ELISA): effectively decrease the content of TGF-β1
[5]; prevention groups, 30 mg/kg intragastric to the 14th day
  Survival rate: 100%
[5]; prevention groups, 30 mg/kg intragastric to the 14th day, 10 animals
  Mortality (number of dead animals): 0
[5]; prevention groups, 60 mg/kg intragastric to the 14th day
  Survival rate: 80%
[5]; prevention groups, 60 mg/kg intragastric to the 14th day, 10 animals
  Mortality (number of dead animals): 2
[5]; prevention groups, lower dose (30 mg/kg) better
  protective effect on model mice (mortality), comparison among compounds: more effective than compound VIII
[5]; treatment groups, 30 mg/kg intragastric from the 8th to the 21th day
  Survival rate: 89%
[5]; treatment groups, 30 mg/kg intragastric from the 8th to the 21th day, 18 animals
  Mortality (number of dead animals): 2
[5]; treatment groups, 60 mg/kg intragastric from the 8th to the 21th day
  Survival rate: 78%
[5]; treatment groups, 60 mg/kg intragastric from the 8th to the 21th day, 18 animals
  Mortality (number of dead animals): 4
[6]
  lung index (lung weight divided by mouse weight): significantly decrease the lung index
[7]
  pulmonary inflammation, injury and fibrosis in HE and Masson stained pathological sections: recover to nearly normal structure
[8]
  antitussive effect: very good antitussive effect
[9]; 30, 60 mg/kg, prevention and treatment groups (FIG. 5, 6), lower dose better in prevention, higher dose better in treatment
  collagen deposition (Masson staining, integrated optical density): significantly decrease collagen deposition
[9]; in general, Masson staining
  effect in decreasing the collagen deposition, comparison among compounds: slightly better than that of compound VIII

## Cc1ccc(=O)n(-c2ccccc2)c1 [Pirfenidone, pirfenidone, reference compound]
[10]
  clinical side effects: photosensitization
[5]; prevention groups, 300 mg/kg intragastric to the 14th day
  Survival rate: 70%
[5]; prevention groups, 300 mg/kg intragastric to the 14th day, 10 animals
  Mortality (number of dead animals): 3
[5]; treatment groups, 300 mg/kg intragastric from the 8th to the 21th day
  Survival rate: 67%
[5]; treatment groups, 300 mg/kg intragastric from the 8th to the 21th day, 18 animals
  Mortality (number of dead animals): 6
[11]
  inhibition of pro-fibrogenic factors: can inhibit the pro-fibrogenic factors such as TGF-β1
